# What was measured:
# SQ20B xenograft tumors = experiment: In vivo to in vitro clonogenic assay in nude mice with SQ20B tumors; set-up: species or system mouse; settings: osmotic pump placed 2 days prior, 8 Gy, FIG. 11
# Experimental: The mice in the study had SQ20B xenograft tumors on a hind leg. The pump was placed into the mouse 2 days prior to experiment. On the day of the experiment, the mouse was anesthetized and irradiated to 8 Gy. The tumor was then harvested and a cell suspension made. The cells were plated and the plating efficiency determined to indicate the number of cells that were viable and able to reproduce by forming colonies in each individual group (plating efficiency).
# FIG. 8 illustrates the results of an in vivo to in vitro clonogenic assay in nude mice with SQ20B tumors.
# Akt = experiment: Western blot analysis of Akt phosphorylation in SQ20B cells; type: cell-based, human
# Experimental: Using Western blot analysis, a human head-and-neck cancer cell line, SQ20B, (American Type Culture Collection; Manassas, Va.) containing a constitutively-active EGFR receptor and thus, increased signaling through PI3K, was examined for Akt phosphorylation.
# Cells were lysed without trypsinization by rinsing culture dishes once with PBS followed by lysis with reducing Laemeli sample buffer. Samples were boiled, sheared, and clarified by centrifugation and stored at −20° C. […] Membranes were blocked in PBS containing 0.1% Tween-20 and 5% powdered milk before primary antibody addition. The dilution of the primary antibody was 1:2000. Antibody binding was detected using the ECL chemiluminescence kit (Amersham, Arlington Heights, Ill.). Images were digitized using an Arcus II scanner, and figures were assembled using Adobe Photoshop 3.0 and Microsoft Power Point programs.
# MIAPACA2 = experiment: Clonogenic assay, radiation sensitization of MIAPACA2 cells; type: cell-based; settings: control SF2 0.906 +/− 0.086
# Experimental: (§1) Cultures of cells in log growth phase were counted and plated in 60-mm dishes containing 4 ml of media. […] Cells were irradiated with a Mark I cesium irradiator (J. L. Shepherd, San Fernando, Calif.) at a dose rate of 1.6 Gy/min. Colonies were stained and counted 10-14 days after irradiation. A light box was used to assist in counting colonies. The surviving fraction was calculated by dividing the number of colonies formed by the number of cells plated times plating efficiency (Table 1). Each point value represents the mean surviving fraction from at least six replicate dishes.
# T24 = experiment: Clonogenic assay, radiation sensitization of T24 cells; type: cell-based, human; settings: control SF2 0.560 +/− 0.061
# Experimental: as §1
# A549 = experiment: Clonogenic assay, radiation sensitization of A549 cells; type: cell-based; settings: control SF2 0.570 +/− 0.042
# Experimental: as §1
# SQ20B cells = experiment: Clonogenic assay, radiosensitization of SQ20B cells; type: cell-based, human
# Experimental: Cultures in log growth phase were counted and plated in 60-mm dishes containing 4 ml of media. The cells were allowed to attach and inhibitors were added to cultures at least one hour prior to radiation. Cells were irradiated with a Mark I cesium irradiator (J. L. Shepherd, San Fernando, Calif.) at a dose rate of 1.6 Gy/min. Colonies were stained and counted 10-14 days after irradiation. Typically, at least 6 dishes are prepared at each dose level of radiation.
# as §1
# [1] = Amprenavir by pump + 8 Gy vs 8 Gy alone, right hind leg
# REF = experiment: Clonogenic assay, radiation sensitization of REF cells; type: cell-based; settings: control SF2 0.408 +/− 0.040
# Experimental: as §1
# [2] = dose of about 1200 mg bid; cited from earlier work
smiles,measurement,setting,value
"CC(C)CN(C[C@@H](O)[C@H](Cc1ccccc1)NC(=O)O[C@H]1CCOC1)S(=O)(=O)c1ccc(N)cc1 [Amprenavir, amprenavir]","cell kill, combination of radiation and Amprenavir",SQ20B xenograft tumors,significant increase in cell kill
same,signaling in the Ras pathway,"Akt; FIG. 4, SQ20b cells and T24 cells",inhibits
same,phosphorylation of Akt at Ser 473,"Akt; SQ20B cells, 10 μM Amprenavir, Western blot",down-regulation
same,phosphorylation of Akt at the Thr 308 site,"Akt; SQ20B cells, 10 μM or 20 μM Amprenavir",no change
same,phosphorylation of Akt at Ser 473,"Akt; SQ20B cells, 20 μM Amprenavir, Western blot (FIG. 3 and FIG. 5)",abolished
same,Amprenavir SF2,MIAPACA2,0.664 +/− 0.051
same,Amprenavir SF2,T24,0.370 +/− 0.022
same,Amprenavir SF2,A549,0.487 +/− 0.030
same,survival difference in cell kill numbers,"SQ20B cells; 30 fractions of 2 Gy, SF2 0.51 vs 0.7",~4 log
same,surviving fraction after 2 Gy (SF2),"SQ20B cells; SQ20B cells, 5 μM Amprenavir + 2 Gy radiation, control 70% (FIG. 6)",51%
same,Amprenavir SF2,"SQ20B cells; SQ20B, control SF2 0.691 +/− 0.042",0.432 +/− 0.017
same,survival value after 30 fractions of 2 Gy,"SQ20B cells; calculated from SF2 0.51, without drug 2.25×10^−5",1.68×10^−9
same,"cell kill, combination of radiation and Amprenavir","SQ20B cells; clonogenic assay in vitro, FIG. 7",increase cell kill
same,leg contracture or fibrosis,[1],No differences
same,Amprenavir SF2,REF,0.402 +/− 0.136
same,peak plasma concentration,[2],15.1 µM
same,trough plasma concentration,[2],0.63 µM
